Experimental data taken from ChEMBL document CHEMBL1136178, “Carbonic anhydrase inhibitors: topically acting antiglaucoma sulfonamides incorporating esters and amides of 3- and 4-carboxybenzolamide” (Bioorg Med Chem Lett, 2003).

Tests used:
Oryctolagus cuniculus [1] = species: Oryctolagus cuniculus
Description: Fall of intraocular pressure (IOP) after treatment with 50 ug into normotensive rabbit at time interval 60 min at a pH of 7

Carbonic anhydrase 2 = Carbonic anhydrase 2 (Homo sapiens, UniProt P00918)
Description: Inhibitory activity against human carbonic anhydrase II

Oryctolagus cuniculus [2] = species: Oryctolagus cuniculus; remark: listed apart in the source
Description: Fall of intraocular pressure (IOP) after treatment with 50 ug into normotensive rabbit at time interval 240 min at a pH of 7

Oryctolagus cuniculus [3] = species: Oryctolagus cuniculus; remark: listed apart in the source
Description: Fall of intraocular pressure (IOP) after treatment with 50 ug into normotensive rabbit at time interval 90 min at a pH of 7

Oryctolagus cuniculus [4] = species: Oryctolagus cuniculus; remark: listed apart in the source
Description: Fall of intraocular pressure (IOP) after treatment with 50 ug into normotensive rabbit at time interval 30 min at a pH of 7

Carbonic anhydrase 4 = molecular target: T1, Carbonic anhydrase 4 (Bos taurus, UniProt Q95323)
T1 sequence (Q95323 whole entry): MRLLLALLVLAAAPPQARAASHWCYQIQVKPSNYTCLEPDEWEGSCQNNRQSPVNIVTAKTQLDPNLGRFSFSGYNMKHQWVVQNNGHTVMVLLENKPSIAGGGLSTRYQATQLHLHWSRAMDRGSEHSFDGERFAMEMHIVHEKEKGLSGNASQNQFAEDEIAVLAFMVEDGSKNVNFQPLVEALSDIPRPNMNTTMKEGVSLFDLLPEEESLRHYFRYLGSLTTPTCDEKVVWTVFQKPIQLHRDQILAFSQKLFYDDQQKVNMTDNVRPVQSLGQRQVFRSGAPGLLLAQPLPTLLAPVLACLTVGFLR
Description: Inhibitory activity against Carbonic anhydrase IV isolated from bovine lung

Carbonic anhydrase 1 = Carbonic anhydrase 1 (Homo sapiens, UniProt P00915)
Chain of Carbonic anhydrase 1 (P00915 whole entry): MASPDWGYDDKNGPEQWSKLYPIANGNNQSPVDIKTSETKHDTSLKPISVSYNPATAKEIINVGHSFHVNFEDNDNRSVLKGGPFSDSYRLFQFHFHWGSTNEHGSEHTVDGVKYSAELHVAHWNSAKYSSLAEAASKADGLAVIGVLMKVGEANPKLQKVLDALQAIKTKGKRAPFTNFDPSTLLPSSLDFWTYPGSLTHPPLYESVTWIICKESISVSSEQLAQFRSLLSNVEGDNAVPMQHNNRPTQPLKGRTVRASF
Description: Inhibitory activity against human carbonic anhydrase I (hCA I)

Compound	Delta IOP (Oryctolagus cuniculus [1])	Ki (Carbonic anhydrase 2)	Delta IOP (Oryctolagus cuniculus [2])	Delta IOP (Oryctolagus cuniculus [3])	Delta IOP (Oryctolagus cuniculus [4])	Ki (Carbonic anhydrase 4)	Ki (Carbonic anhydrase 1)
CN(C)CCOC(=O)c1cccc(S(=O)(=O)Nc2nnc(S(N)(=O)=O)s2)c1	4.9 mmHg	2.1 nM	5.7 mmHg	7.1 mmHg	4.5 mmHg	7 nM	15 nM
Cn1nc(S(N)(=O)=O)s/c1=N/S(=O)(=O)c1ccc(C(=O)OCCO)cc1	–	4 nM	–	–	–	14 nM	20 nM
CN(C)CCOCCOC(=O)c1cccc(S(=O)(=O)Nc2nnc(S(N)(=O)=O)s2)c1	4.5 mmHg	1.6 nM	3.3 mmHg	4.1 mmHg	4.9 mmHg	6 nM	13 nM
NS(=O)(=O)c1nnc(NS(=O)(=O)c2cccc(C(=O)OCCO)c2)s1	4.8 mmHg	3.1 nM	0.5 mmHg	2.8 mmHg	10.5 mmHg	8 nM	16 nM
CCN(CC)CCNC(=O)c1cccc(S(=O)(=O)Nc2nnc(S(N)(=O)=O)s2)c1	6.9 mmHg	1.7 nM	8 mmHg	9.1 mmHg	6.5 mmHg	7 nM	14 nM
CN(C)CCOCCOC(=O)c1ccc(S(=O)(=O)Nc2nnc(S(N)(=O)=O)s2)cc1	3.9 mmHg	1.3 nM	6.3 mmHg	5.7 mmHg	2.7 mmHg	7 nM	12 nM
CC(=O)/N=c1/sc(S(N)(=O)=O)nn1C [METHAZOLAMIDE]	–	–	–	–	–	145 nM	–
CC(CN(C)C)OC(=O)c1ccc(S(=O)(=O)/N=c2/sc(S(N)(=O)=O)nn2C)cc1 (stereo unspecified)	–	1.8 nM	–	–	–	13 nM	15 nM
CN(C)CCOC(=O)c1ccc(S(=O)(=O)Nc2nnc(S(N)(=O)=O)s2)cc1	5.5 mmHg	1.5 nM	7.6 mmHg	8 mmHg	4.5 mmHg	10 nM	11 nM
COCCOC(=O)c1cccc(S(=O)(=O)Nc2nnc(S(N)(=O)=O)s2)c1	2.5 mmHg	2.9 nM	0 mmHg	2 mmHg	6 mmHg	8 nM	15 nM
CC(CN(C)C)OC(=O)c1ccc(S(=O)(=O)Nc2nnc(S(N)(=O)=O)s2)cc1 (stereo unspecified)	5.9 mmHg	1.4 nM	8 mmHg	8.2 mmHg	4.8 mmHg	10 nM	13 nM
NS(=O)(=O)c1nnc(NS(=O)(=O)c2ccc(C(=O)O)cc2)s1	–	4.6 nM	–	–	–	12 nM	45 nM
NS(=O)(=O)c1nnc(NS(=O)(=O)c2ccc(C(=O)OCCO)cc2)s1	–	2.9 nM	–	–	–	11 nM	14 nM
CC(CN(C)C)OC(=O)c1cccc(S(=O)(=O)Nc2nnc(S(N)(=O)=O)s2)c1 (stereo unspecified)	6.7 mmHg	2 nM	7.9 mmHg	8.5 mmHg	2.5 mmHg	8 nM	17 nM
COCCOC(=O)c1ccc(S(=O)(=O)/N=c2/sc(S(N)(=O)=O)nn2C)cc1	–	3.1 nM	–	–	–	12 nM	16 nM
Cn1nc(S(N)(=O)=O)s/c1=N/S(=O)(=O)c1ccc(C(=O)O)cc1	–	5.4 nM	–	–	–	14 nM	50 nM
CCN(CC)CCNC(=O)c1cccc(S(=O)(=O)/N=c2/sc(S(N)(=O)=O)nn2C)c1	–	1.9 nM	–	–	–	7 nM	16 nM
NS(=O)(=O)c1nnc(NS(=O)(=O)c2cccc(C(=O)O)c2)s1	–	5.1 nM	–	–	–	13 nM	68 nM
CC(CN(C)C)OC(=O)c1cccc(S(=O)(=O)/N=c2/sc(S(N)(=O)=O)nn2C)c1 (stereo unspecified)	–	2.2 nM	–	–	–	12 nM	18 nM
CN(C)CCOC(=O)c1ccc(S(=O)(=O)/N=c2/sc(S(N)(=O)=O)nn2C)cc1	–	2.4 nM	–	–	–	14 nM	13 nM
CN(C)CCOC(=O)c1cccc(S(=O)(=O)/N=c2/sc(S(N)(=O)=O)nn2C)c1	–	2.9 nM	–	–	–	10 nM	16 nM
Cn1nc(S(N)(=O)=O)s/c1=N/S(=O)(=O)c1cccc(C(=O)O)c1	–	5.9 nM	–	–	–	15 nM	73 nM
NS(=O)(=O)c1nnc(NS(=O)(=O)c2ccccc2)s1 [BENZOLAMIDE]	–	–	–	–	–	12 nM	–
Cn1nc(S(N)(=O)=O)s/c1=N/S(=O)(=O)c1cccc(C(=O)OCCO)c1	–	5.2 nM	–	–	–	10 nM	23 nM
COCCOC(=O)c1cccc(S(=O)(=O)/N=c2/sc(S(N)(=O)=O)nn2C)c1	–	3.3 nM	–	–	–	9 nM	17 nM
CCN(CC)CCNC(=O)c1ccc(S(=O)(=O)/N=c2/sc(S(N)(=O)=O)nn2C)cc1	–	1.7 nM	–	–	–	8 nM	12 nM
COCCOC(=O)c1ccc(S(=O)(=O)Nc2nnc(S(N)(=O)=O)s2)cc1	–	2.8 nM	–	–	–	10 nM	12 nM
CN(C)CCOCCOC(=O)c1cccc(S(=O)(=O)/N=c2/sc(S(N)(=O)=O)nn2C)c1	–	2 nM	–	–	–	8 nM	15 nM
CN(C)CCOCCOC(=O)c1ccc(S(=O)(=O)/N=c2/sc(S(N)(=O)=O)nn2C)cc1	–	1.7 nM	–	–	–	9 nM	13 nM
